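Compound exposure: 48 hours, 5 concentrations, 96-well plates. The concentration for 50% growth inhibition is given as GI50.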 Active and inactive are the calls of the source. Cut-off read from the data, not from the text of the source: active = GI50 up to about 1.1 µM and inactive = higher.
Experiments:
Test in all cases: NCI tumour cell line growth inhibition, 48 h
786-0 = system: 786-0
HL-60 = system: HL-60
HOP-62 = system: HOP-62
HT-29 = system: HT-29
KM12 = system: KM12
MOLT-4 = system: MOLT-4
Malme-3M = system: Malme-3M
NCI-H23 = system: NCI-H23
NCI-H522 = system: NCI-H522
SK-MEL-5 = system: SK-MEL-5
SK-OV-3 = system: SK-OV-3
SNB-19 = system: SNB-19
SNB-75 = system: SNB-75
TK-10 = system: TK-10
U-251 = system: U-251
UO-31 = system: UO-31

Measured: GI50

COC(=O)c1nc(N)nc(O)c1-c1ccc(Cl)cc1
inactive: 786-0 > 100 µM | HL-60 > 100 µM | HOP-62 > 100 µM | HT-29 > 100 µM | KM12 > 100 µM | MOLT-4 > 100 µM | Malme-3M > 100 µM | NCI-H23 > 100 µM | NCI-H522 > 100 µM | SK-MEL-5 > 100 µM | SK-OV-3 > 100 µM | SNB-19 > 100 µM | SNB-75 > 100 µM | TK-10 > 100 µM | U-251 > 100 µM | UO-31 > 100 µM

NC(=O)N/N=C(\CCC(=O)N(Cc1ccccc1)Cc1ccccc1)CC(=O)c1ccc(F)cc1
inactive: 786-0 27.2 µM | HL-60 > 100 µM | HOP-62 > 100 µM | HT-29 > 100 µM | KM12 > 100 µM | MOLT-4 > 100 µM | Malme-3M > 100 µM | NCI-H23 > 100 µM | SK-MEL-5 > 100 µM | SK-OV-3 > 100 µM | SNB-19 > 100 µM | TK-10 > 100 µM | U-251 > 100 µM | UO-31 > 100 µM

CCOC(=O)N1CCC(=O)C(CNC23CC4CC(CC(C4)C2)C3)C1 (stereo not drawn)
inactive: 786-0 15.6 µM | HL-60 22.2 µM | HOP-62 > 100 µM | HT-29 22.4 µM | KM12 > 100 µM | MOLT-4 13.9 µM | Malme-3M 17.7 µM | NCI-H23 61.4 µM | NCI-H522 16.7 µM | SK-MEL-5 80.2 µM | SK-OV-3 > 100 µM | SNB-19 > 100 µM | TK-10 > 100 µM | U-251 > 100 µM | UO-31 51.5 µM

O=[N+]([O-])c1ccc(N2C[N+](c3ccccc3)=NC(c3ccccc3)=N2)cc1
inactive: 786-0 59.7 µM | HL-60 38.2 µM | HOP-62 17.8 µM | HT-29 43.9 µM | KM12 29.4 µM | MOLT-4 43.5 µM | Malme-3M 91.2 µM | NCI-H23 34 µM | NCI-H522 25.6 µM | SK-MEL-5 29 µM | SK-OV-3 48.9 µM | SNB-19 38.6 µM | SNB-75 99.3 µM | TK-10 40.7 µM | U-251 32.2 µM | UO-31 17.3 µM

COC(=O)C(C(=O)c1ccccc1)C(C(=O)C(=O)Nc1ccc(OC)cc1OC)C(=O)C(=O)c1ccc(C)cc1 (stereo not drawn)
inactive: 786-0 > 100 µM | HL-60 > 100 µM | HOP-62 > 100 µM | HT-29 > 100 µM | KM12 > 100 µM | MOLT-4 > 100 µM | Malme-3M > 100 µM | NCI-H23 > 100 µM | NCI-H522 > 100 µM | SK-MEL-5 > 100 µM | SK-OV-3 > 100 µM | SNB-19 > 100 µM | SNB-75 > 100 µM | TK-10 > 100 µM | U-251 > 100 µM | UO-31 > 100 µM

NNC(=O)CCC(=O)NC1C2CC3CC(C2)CC1C3 (stereo not drawn)
inactive: 786-0 > 100 µM | HL-60 > 100 µM | HOP-62 > 100 µM | HT-29 > 100 µM | KM12 > 100 µM | MOLT-4 43.5 µM | Malme-3M > 100 µM | NCI-H23 > 100 µM | NCI-H522 > 100 µM | SK-MEL-5 > 100 µM | SK-OV-3 > 100 µM | SNB-19 > 100 µM | SNB-75 > 100 µM | TK-10 > 100 µM | U-251 > 100 µM | UO-31 > 100 µM

COc1ccc(OCC(=O)O)c2c1CCC(C(C)C)C2=O (stereo not drawn)
inactive: 786-0 > 100 µM | HL-60 > 100 µM | HOP-62 > 100 µM | HT-29 > 100 µM | KM12 > 100 µM | MOLT-4 > 100 µM | Malme-3M > 100 µM | NCI-H23 > 100 µM | NCI-H522 > 100 µM | SK-MEL-5 > 100 µM | SK-OV-3 > 100 µM | SNB-19 > 100 µM | TK-10 > 100 µM | U-251 > 100 µM | UO-31 > 100 µM

Cc1c(C(=O)/C=C/c2ccc(Cl)cc2)[n+]([O-])c2ccccc2[n+]1[O-]
inactive: 786-0 12.6 µM | HL-60 5.92 µM | HOP-62 26.5 µM | HT-29 12.9 µM | KM12 10.8 µM | MOLT-4 13.8 µM | Malme-3M 19.6 µM | NCI-H23 10.4 µM | NCI-H522 3.78 µM | SK-OV-3 21.2 µM | SNB-19 14.4 µM | SNB-75 15.3 µM | TK-10 18.2 µM | U-251 12.9 µM | UO-31 16.1 µM

CC(=O)OC(/C=C1/C=CC(=O)O1)COC(=O)c1ccccc1 (stereo not drawn) [ACETYLMELODORINOL]
inactive: 786-0 > 31.2 µM | HL-60 > 31.2 µM | HOP-62 > 31.2 µM | HT-29 > 31.2 µM | KM12 > 31.2 µM | Malme-3M > 31.2 µM | NCI-H23 > 31.2 µM | NCI-H522 > 31.2 µM | SK-MEL-5 > 31.2 µM | SK-OV-3 > 31.2 µM | SNB-19 > 31.2 µM | SNB-75 > 31.2 µM | TK-10 > 31.2 µM | U-251 > 31.2 µM | UO-31 > 31.2 µM
